Measurements published in publication PMC7766225, “Structure-Based Discovery and Bioactivity Evaluation of Novel Aurora-A Kinase Inhibitors as Anticancer Agents via Docking-Based Comparative Intermolecular Contacts Analysis (dbCICA)” (Molecules, 2020).
Where “and” joins values, the source holds several entries; their conditions need not be identical. Equal entries are not always repeated. Where two headings read alike, the source gives them in different places.

How the values were obtained:
[1] = tested on: MDA-MB-231 cells; experiment: MTT cytotoxicity/anti-proliferation assay, MDA-MB-231; assay type: cell-based, human; settings: Homo sapiens; for IC50: MDA-MB-231, 72 h; for inhibition at 25 µM: MDA-MB-231, 25 µM; for inhibition at 25 µM / inhibition at 50 µM: 72 h; for inhibition at 50 µM: MDA-MB-231, 50 µM
Description: (§1) The human cell-lines triple negative breast adenocarcinoma MDA-MB-231, Pancreas adenocarcinoma PANC1, ductal breast carcinoma T-47D and fibroblasts were preserved and expanded in DMEM medium, while the prostate adenocarcinoma PC-3 cells were cultured in RPMI-1640 growth medium. All growth media were supplemented with 10% heat-inactivated fetal bovine serum (FBS). Cells were maintained under standard culture conditions at 37 °C, 5% CO2 in a humidified incubator. At 80% confluency, cells were washed with 5 mL phosphate buffer saline (1X PBS), then incubated for 4 min with 2–3 mL Trypsin-EDTA 0.25% in order to obtain suspended cells and collect them in a known volume of fresh media for cell count. Cells were counted using conventional hemocytometer and trypan blue dye method.
(§2) The five potent hits that have shown anti-Aurora-A Kinase inhibition percentages above 51% at 10 μM upon conducting the kinase enzyme Inhibition assay (Table 5) were further validated using MTT cytotoxicity Assay. This assay includes 3-(4,5-Dimethylthiazol-2-yl)-2,5-diphenyl tetrazolium bromide (MTT) dye, which is a yellowish tetrazole reduced by viable cells into formazan purple color, which detects the normal mitochondrial role in viable cells. In 96-well coated flat bottom microplates, 100 μL cell suspension of PANC1 or T-47D cells were seeded at a density of 7000 cell/well, and 6000 cell/well for MDA-MB-231, PC-3, or fibroblasts, and incubated under the same conditions at 37 °C. After 24 h, each well was treated with the intended drug concentration diluted in 200 μL fresh media after removal of the old 100-μL media. After 72 h incubation, drug-containing media was aspirated and on each well 100 μL phenol-red free media and 15-μL MTT solution (5 mg/mL (wt/vol) PBS). After 3 h of dark incubation at 37 °C, MTT and media were carefully withdrawn from each well, and 200 μL/well DMSO were added. Colorimetric absorbance (OD) was measured at 570 nm wavelength using 96-well plate reader (Tecan-Sunrise, Männedorf, Switzerland).
(§3) The five compounds were prepared in a stock concentrate of 10 mM using cell culture grade DMSO to be utilized in MTT assay. The cytotoxicity of each compound was initially screened on cancer cell-lines at two concentrations: 50 μM and 25 μM in duplicates. […] The safety index for the compounds with specified IC50 values was evaluated via determining their IC50 values against normal Fibroblast cells. It is noteworthy to mention that DMSO concentration was constant on all the wells (i.e., (0.5% v/v or 1 μL/200 μL) per well), for the treated and the control ones. IC50 values were calculated using nonlinear regression of the dose–response curves using GraphPad Prism software 7.03.

[2] = tested on: T-47D cells; experiment: MTT cytotoxicity/anti-proliferation assay, T-47D; assay type: cell-based; settings: Homo sapiens, T47D, 72 h
Description: as §1, §2, §3

[3] = tested on: PANC1 cells; experiment: MTT cytotoxicity/anti-proliferation assay, PANC1; assay type: cell-based, human; settings: Homo sapiens; for IC50: PANC-1, 72 h, Panc1, 72 h; for inhibition at 25 µM / inhibition at 50 µM: PANC-1, 72 h; for inhibition at 25 µM: Panc1, 25 µM; for inhibition at 50 µM: Panc1, 50 µM
Description: as §1, §2, §3

[4] = target: T1, Aurora-A kinase (Homo sapiens, UniProt O14965); experiment: FRET-based Z'-LYTE kinase enzyme inhibition assay; assay type: biochemical; settings: for inhibition at 10 µM: read-out: % Inhibition at 10 µM; for IC50: nonlinear regression; for Hill Slope: dose-response curve, GraphPad Prism
T1 construct: purchased Invitrogen (Carlsbad, CA, USA)
T1 sequence (O14965 1-403): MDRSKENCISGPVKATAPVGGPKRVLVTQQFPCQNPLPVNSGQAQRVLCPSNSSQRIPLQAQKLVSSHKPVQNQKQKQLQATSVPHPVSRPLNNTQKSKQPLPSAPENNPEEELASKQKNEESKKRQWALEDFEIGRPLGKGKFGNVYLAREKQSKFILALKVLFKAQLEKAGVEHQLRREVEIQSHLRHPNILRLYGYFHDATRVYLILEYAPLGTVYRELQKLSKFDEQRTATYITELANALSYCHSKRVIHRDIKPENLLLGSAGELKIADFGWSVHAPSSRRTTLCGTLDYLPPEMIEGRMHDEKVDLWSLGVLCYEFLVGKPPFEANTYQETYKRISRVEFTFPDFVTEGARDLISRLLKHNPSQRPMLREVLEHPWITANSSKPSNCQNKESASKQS
Description: This bioassay was conducted using Z′-LYTE® kinase assay (Invitrogen, Carlsbad, CA, USA) [68, 69]. This biochemical assay depends on fluorescence emission as detection method utilizing a synthetic fluorescence resonance energy transfer (FRET) peptide with two fluorophores: coumarin that work as donor and fluorescein as acceptor [69]. Each hit or compound was dissolved in DMSO to form 10 mM stock solution. Hits were screened at 10 μM concentration. The bioassay was performed in black 384-well plate. For each assay, 100 nL of tested compound stock solution (10 mM) was mixed with 2.4 μL kinase buffer, 5 μL (peptide substrate/Aurora-A Kinase) mixture, and 2.5 μL ATP solution.
The tests were conducted in duplicates.

[5] = target: T1, Aurora-A kinase; settings: Table S1, ChEMBL, et al., cited from earlier work
[6] = tested on: Fibroblasts; experiment: MTT cytotoxicity assay on normal fibroblasts (safety index); assay type: cell-based; settings: Homo sapiens, Fibroblast, 72 h
Description: as §1, §2, §3

[7] = tested on: PC-3 cells; experiment: MTT cytotoxicity/anti-proliferation assay, PC-3; assay type: cell-based; settings: Homo sapiens
Description: as §1, §2, §3

Work on Cc1cc(O)c(/N=N/c2ccc(C(=O)O)cc2)cc1C [Hit 88] yielded an IC50 [1] greater than 50000 nM, an inhibition at 25 µM [1] of 21.1 ± 0.05% and an inhibition at 50 µM [1] of 31.3 ± 0.06%. The inhibition at 25 µM [2] was 26.5 ± 0.01%, the inhibition at 50 µM [2] was 34.9 ± 0.013% and the IC50 [2] was greater than 50000 nM. It also gave an IC50 [3] greater than 50000 nM, an inhibition at 25 µM [3] of 11.3 ± 0.01% and an inhibition at 50 µM [3] of 15.1 ± 0.006%. The inhibition at 10 µM ([4]; 10 µM, duplicates, Z'-LYTE) was 75%, the IC50 ([4]; 0.1–100 μM, duplicates, read-out: IC50) was 2600 nM and 2610 nM and the “Hill Slope” value [4] was 1.77.
In the case of O=C(O)c1ccc(Nc2ccnc3cc(Cl)ccc23)cc1O [Hit 141], the IC50 [1] is reported as greater than 50000 nM, the inhibition at 25 µM [1] is reported as 2.9 ± 0.03% and the inhibition at 50 µM [1] is reported as 11.1 ± 0.05%. The inhibition at 25 µM [2] was 21.11 ± 0.01%, the inhibition at 50 µM [2] was 25.04 ± 0.02% and the IC50 [2] was greater than 50000 nM. For the same molecule, the IC50 [3] was greater than 50000 nM, the inhibition at 25 µM [3] was 11.4 ± 0.003% and the inhibition at 50 µM [3] was 15.7 ± 0.02%. It also gave an inhibition at 10 µM ([4]; 10 µM, duplicates, Z'-LYTE) of 51%.
In the case of COc1cc2c(Nc3cc(CC(=O)Nc4cccc(F)c4F)[nH]n3)ncnc2cc1OCCCN(CCO)CC(C)C [Compound 21], the Ki ([5]; ref Mortlock, 2007) is given as 18 nM.
In the case of CCC(=O)Nc1ccc(Sc2nc(Nc3cc(C)[nH]n3)cc(N3CCNCC3)n2)cc1 [Compound 59], the Ki ([5]; ref Bebbington, 2009) is given as 3.7 nM.
For CC(=O)Nc1ccc(Sc2nccc(Nc3cc(C)[nH]n3)n2)cc1 [Compound 49], the Ki ([5]; ref Bebbington, 2009) is given as 86 nM.
For CC(=O)Nc1ccc(Sc2nc(Nc3cc(C)[nH]n3)cc(-c3ccccc3)n2)cc1 [Compound 51], the Ki ([5]; ref Bebbington, 2009) is listed as 2.4 nM.
CCCC1N(Cc2ccc(OC)cc2)CCN1Cc1ccc(OC)cc1 [Hit 130] gave an IC50 [1] greater than 50000 nM, an inhibition at 25 µM [1] of 22.9 ± 0.02% and an inhibition at 50 µM [1] of 45.5 ± 0.05%. For the same molecule, the inhibition at 25 µM [2] was 25.5 ± 0.016%, the inhibition at 50 µM [2] was 31.3 ± 0.008% and the IC50 [2] was greater than 50000 nM. The IC50 [3] was greater than 50000 nM, the inhibition at 25 µM [3] was 20.3 ± 0.012% and the inhibition at 50 µM [3] was 34.9 ± 0.017%. For the same molecule, the IC50 ([4]; IC50, 0.1–100 μM, duplicates) was 5890 nM and 5900 nM, the “Hill Slope” value [4] was 7.6 and the inhibition at 10 µM [4] was 86%.
For Cc1cc(Nc2nc(-c3ccncc3)nc3ccccc23)n[nH]1 [Compound 29], the Ki ([5]; ref Bebbington, 2009) is listed as 81 nM.
In the case of COc1cc2c(Nc3cc(CC(=O)Nc4cc(F)cc(F)c4)[nH]n3)ncnc2cc1OCCCN1CCC(CO)CC1 [Compound 6], the Ki ([5]; ref Mortlock, 2007) is listed as 230 nM.
For CCC(=O)Nc1ccc(Sc2nc(Nc3cc(C)[nH]n3)cc(N3CCOCC3)n2)cc1 [Compound 58], the Ki ([5]; ref Bebbington, 2009) is given as 1.7 nM.
For COc1cc2c(Nc3cc(CC(=O)Nc4cccc(F)c4F)[nH]n3)ncnc2cc1OCCCN1CCC(CCO)CC1 [Compound 14], the Ki ([5]; ref Mortlock, 2007) is listed as 280 nM.
In the case of Cc1nc(C)c(-c2ccnc(Nc3ccc(N)cc3)n2)s1 [Compound 67], the Ki ([5]; ref Wang, 2010) is given as 31 nM.
For CCNc1nc(C)c(-c2ccnc(Nc3cc(OC)c(OC)c(OC)c3)n2)s1 [Compound 70], the Ki ([5]; ref Wang, 2010) is given as 3 nM.
In the case of COc1cc2c(Nc3cc(CC(=O)Nc4cccc(F)c4F)[nH]n3)ncnc2cc1OCCCN1CCN(CCO)CC1 [Compound 12], the Ki ([5]; ref Mortlock, 2007) is listed as 55 nM.
In the case of CCCN(CCO)CCCOc1ccc2c(Nc3cc(CC(=O)Nc4cccc(F)c4)[nH]n3)ncnc2c1 [Compound 25], the Ki ([5]; ref Mortlock, 2007) is given as 980 nM.
For Cc1nc(C)c(-c2ccnc(Nc3ccc(N(C)C)cc3)n2)s1 [Compound 65], the Ki ([5]; ref Wang, 2010) is listed as 6.9 nM.
For CCC(=O)Nc1ccc(Sc2nc(Nc3cc(C)[nH]n3)cc(N3CCN(C)CC3)n2)cc1 [Compound 60], the Ki ([5]; ref Bebbington, 2009) is listed as 1.6 nM.
For COc1cccc(NC(=O)Cc2cc(Nc3ncnc4cc(OCCCN5CCC(CO)CC5)c(OC)cc34)n[nH]2)c1 [Compound 10], the Ki ([5]; ref Mortlock, 2007) is listed as 1900 nM.
For COc1cc2c(Nc3cc(CC(=O)Nc4cccc(C#N)c4)[nH]n3)ncnc2cc1OCCCN1CCC(CO)CC1 [Compound 8], the Ki ([5]; ref Mortlock, 2007) is given as 2600 nM.
Molecule COc1cc(/C=N/c2ccc3ccccc3c2)ccc1O [Hit 112] has an IC50 [1] of 17900 ± 1400 nM, an inhibition at 25 µM [1] of 63.3 ± 0.021% and an inhibition at 50 µM [1] of 74.7 ± 0.012%. For the same molecule, the inhibition at 25 µM ([6]; 25 µM) was 53.9 ± 0.018%, the inhibition at 50 µM ([6]; 50 µM) was 54.3 ± 0.003% and the IC50 [6] was 15100 ± 3000 nM. For the same molecule, the inhibition at 25 µM [2] was 34.7 ± 0.012%, the inhibition at 50 µM [2] was 48.11 ± 0.003% and the IC50 [2] was greater than 50000 nM. It also gave an IC50 [3] greater than 50000 nM, an inhibition at 25 µM [3] of 16 ± 0.02% and an inhibition at 50 µM [3] of 22.5 ± 0.012%. It also gave an IC50 ([7]; PC-3, 72 h) greater than 50000 nM, an inhibition at 25 µM ([7]; PC-3, 25 µM, 72 h) of 19.2% and an inhibition at 50 µM ([7]; PC-3, 50 µM, 72 h) of 32.7%. The inhibition at 10 µM ([4]; 10 µM, duplicates, Z'-LYTE) was 55%.
For COc1cc2c(Nc3cc(CC(=O)Nc4cccc(C(F)(F)F)c4)[nH]n3)ncnc2cc1OCCCN1CCC(CO)CC1 [Compound 11], the Ki ([5]; ref Mortlock, 2007) is given as 510 nM.
In the case of COc1cc2c(Nc3cc(CC(=O)Nc4ccc(F)cc4)[nH]n3)ncnc2cc1OCCCN1CCC(CO)CC1 [Compound 4], the Ki ([5]; ref Mortlock, 2007) is listed as 2000 nM.
In the case of CCN(CCO)CCCOc1cc2ncnc(Nc3cc(CC(=O)Nc4cccc(F)c4F)[nH]n3)c2cc1OC [Compound 19], the Ki ([5]; ref Mortlock, 2007) is given as 360 nM.
For CCC(=O)Nc1ccc(Sc2nc(Nc3cc(C)[nH]n3)cc(-c3cccnc3)n2)cc1 [Compound 55], the Ki ([5]; ref Bebbington, 2009) is listed as 3.9 nM.
In the case of COc1cc2c(Nc3cc(CC(=O)Nc4ccccc4F)[nH]n3)ncnc2cc1OCCCN1CCC(CO)CC1 [Compound 2], the Ki ([5]; ref Mortlock, 2007) is listed as 1400 nM.
In the case of CCC(=O)Nc1ccc(Sc2nc(Nc3cc(C)[nH]n3)cc(N3CCN(C(C)(C)C)CC3)n2)cc1 [Compound 61], the Ki ([5]; ref Bebbington, 2009) is listed as 1.3 nM.
For COc1cc2c(Nc3cc(CC(=O)Nc4ccccc4)[nH]n3)ncnc2cc1OCCCN1CCC(CO)CC1 [Compound 1], the Ki ([5]; ref Mortlock, 2007) is given as 1600 nM.
